For 9 compounds, Classification results are on record in patent US20050282743A1, “Molecular interactions in cells” (Arbor Vita Corporation, priority 2001, published 2005).

Ends that are not written are not given here. Peptide text beside a SMILES is read from it. * marks the point of attachment. Biotin = O=C1N[C@H]2[C@H](CS[C@H]2CCCCC(=O)*)N1

Holding throughout (test): G' assay (10 uM PL peptide), results of TABLE 7 and TABLE 12
Type in all cases: binding

For experiment [1], the target named is T1, PDZ protein (GST-PDZ fusion) (Homo sapiens, UniProt P78352).
T1 construct: made in house; host or cells: E. coli (DH5alpha, BL21 or JM109)
The procedure, abridged:
(§1)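 Biotinylated PL peptides at 10 uM (vs 20 uM in G^0 assay) bound to GST-PDZ fusions; PDZ protein at 5 ug/ml unless another concentration listed. Bound peptide read as A450 nm, classified 0–5 (0 = A450 0; 5 = A450 >4 repeated).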

Experiment [2] addresses T2, PDZ protein (GST-PDZ fusion) (Homo sapiens, UniProt Q14160).
T2 construct: made in house; host or cells: E. coli (DH5alpha, BL21 or JM109)
The procedure, abridged:
as §1

For experiment [3], the target named is T3, PDZ protein (GST-PDZ fusion) (Homo sapiens, UniProt Q92796).
T3 construct: made in house; host or cells: E. coli (DH5alpha, BL21 or JM109)
T3 sequence (Q92796 1-817): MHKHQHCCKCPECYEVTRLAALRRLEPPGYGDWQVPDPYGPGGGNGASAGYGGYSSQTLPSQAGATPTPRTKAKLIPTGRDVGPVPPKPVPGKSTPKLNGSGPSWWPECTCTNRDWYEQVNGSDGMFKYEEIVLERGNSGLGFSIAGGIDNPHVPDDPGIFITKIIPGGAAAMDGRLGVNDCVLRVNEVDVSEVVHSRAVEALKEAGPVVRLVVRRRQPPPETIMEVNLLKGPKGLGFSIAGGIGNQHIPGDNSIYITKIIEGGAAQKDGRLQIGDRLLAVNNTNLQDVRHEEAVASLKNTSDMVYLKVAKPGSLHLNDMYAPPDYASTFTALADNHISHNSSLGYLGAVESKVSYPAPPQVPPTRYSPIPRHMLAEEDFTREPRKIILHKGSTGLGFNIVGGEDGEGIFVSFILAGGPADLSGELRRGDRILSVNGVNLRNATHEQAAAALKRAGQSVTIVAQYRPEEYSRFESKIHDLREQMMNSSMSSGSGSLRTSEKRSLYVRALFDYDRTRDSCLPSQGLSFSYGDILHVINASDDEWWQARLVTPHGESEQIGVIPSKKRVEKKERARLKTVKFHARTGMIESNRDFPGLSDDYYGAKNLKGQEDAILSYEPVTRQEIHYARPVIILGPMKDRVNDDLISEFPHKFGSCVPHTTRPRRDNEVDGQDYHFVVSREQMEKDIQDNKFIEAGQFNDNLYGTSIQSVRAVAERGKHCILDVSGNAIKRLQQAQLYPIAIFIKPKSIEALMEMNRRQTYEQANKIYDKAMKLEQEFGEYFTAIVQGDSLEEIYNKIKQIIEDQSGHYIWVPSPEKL
Particulars: PDZ NeDLG. The procedure, abridged:
as §1

In experiment [4] the target is T4, PDZ protein (GST-PDZ fusion) (Homo sapiens, UniProt Q9P202).
T4 construct: made in house; host or cells: E. coli (DH5alpha, BL21 or JM109)
T4 sequence (Q9P202 1-907): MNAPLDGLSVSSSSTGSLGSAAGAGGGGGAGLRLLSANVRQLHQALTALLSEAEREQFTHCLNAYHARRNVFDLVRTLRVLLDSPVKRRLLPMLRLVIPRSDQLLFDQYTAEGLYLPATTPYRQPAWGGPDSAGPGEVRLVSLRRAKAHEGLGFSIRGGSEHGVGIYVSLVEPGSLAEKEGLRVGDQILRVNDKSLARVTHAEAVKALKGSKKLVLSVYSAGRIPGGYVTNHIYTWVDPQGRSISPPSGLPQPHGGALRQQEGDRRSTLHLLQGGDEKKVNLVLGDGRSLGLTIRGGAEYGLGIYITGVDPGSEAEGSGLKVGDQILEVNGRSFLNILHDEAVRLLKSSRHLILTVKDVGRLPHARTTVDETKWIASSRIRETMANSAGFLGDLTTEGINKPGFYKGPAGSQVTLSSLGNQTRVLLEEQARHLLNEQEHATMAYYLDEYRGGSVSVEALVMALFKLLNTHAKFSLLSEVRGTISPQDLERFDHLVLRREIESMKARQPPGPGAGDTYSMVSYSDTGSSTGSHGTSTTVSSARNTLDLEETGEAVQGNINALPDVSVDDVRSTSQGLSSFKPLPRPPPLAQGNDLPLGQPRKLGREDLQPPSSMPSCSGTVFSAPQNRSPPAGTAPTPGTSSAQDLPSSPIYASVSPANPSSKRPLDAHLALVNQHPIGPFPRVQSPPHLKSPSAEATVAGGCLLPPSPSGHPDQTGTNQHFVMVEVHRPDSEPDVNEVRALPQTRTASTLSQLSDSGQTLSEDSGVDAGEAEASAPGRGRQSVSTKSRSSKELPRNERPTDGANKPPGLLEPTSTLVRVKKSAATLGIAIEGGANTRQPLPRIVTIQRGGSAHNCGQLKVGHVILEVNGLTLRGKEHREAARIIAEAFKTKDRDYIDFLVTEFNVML
Particulars: PDZ KIAA1526, PDZ Domain 1. The method, boiled down:
as §1

Experiment [5] has as its target T5, PDZ protein (GST-PDZ fusion) (Homo sapiens, UniProt Q13796).
T5 construct: made in house; host or cells: E. coli (DH5alpha, BL21 or JM109)
As to conditions: PDZ hAPXL, PDZ Domain 1. The method, boiled down: as §1

T1 sequence (P78352 whole entry, the tested form may be a part): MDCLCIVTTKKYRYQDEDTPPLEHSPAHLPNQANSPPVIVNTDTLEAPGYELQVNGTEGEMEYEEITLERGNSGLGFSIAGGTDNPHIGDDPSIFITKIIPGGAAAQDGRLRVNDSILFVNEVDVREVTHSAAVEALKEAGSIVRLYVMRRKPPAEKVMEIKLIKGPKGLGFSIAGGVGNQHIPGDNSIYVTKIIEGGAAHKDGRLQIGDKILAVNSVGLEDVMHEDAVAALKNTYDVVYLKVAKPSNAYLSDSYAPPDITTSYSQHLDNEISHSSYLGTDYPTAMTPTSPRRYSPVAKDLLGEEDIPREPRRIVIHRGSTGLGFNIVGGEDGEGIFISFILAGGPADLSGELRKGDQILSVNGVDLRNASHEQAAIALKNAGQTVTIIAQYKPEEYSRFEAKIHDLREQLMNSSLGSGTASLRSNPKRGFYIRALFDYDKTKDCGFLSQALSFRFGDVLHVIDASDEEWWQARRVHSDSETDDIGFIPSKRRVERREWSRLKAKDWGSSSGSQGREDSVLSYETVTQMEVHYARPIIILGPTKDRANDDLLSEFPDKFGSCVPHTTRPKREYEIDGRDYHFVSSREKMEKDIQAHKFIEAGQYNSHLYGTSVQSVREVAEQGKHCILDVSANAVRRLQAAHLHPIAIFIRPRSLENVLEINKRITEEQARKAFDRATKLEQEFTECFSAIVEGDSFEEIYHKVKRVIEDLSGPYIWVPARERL
T5 sequence (Q13796 whole entry, the tested form may be a part): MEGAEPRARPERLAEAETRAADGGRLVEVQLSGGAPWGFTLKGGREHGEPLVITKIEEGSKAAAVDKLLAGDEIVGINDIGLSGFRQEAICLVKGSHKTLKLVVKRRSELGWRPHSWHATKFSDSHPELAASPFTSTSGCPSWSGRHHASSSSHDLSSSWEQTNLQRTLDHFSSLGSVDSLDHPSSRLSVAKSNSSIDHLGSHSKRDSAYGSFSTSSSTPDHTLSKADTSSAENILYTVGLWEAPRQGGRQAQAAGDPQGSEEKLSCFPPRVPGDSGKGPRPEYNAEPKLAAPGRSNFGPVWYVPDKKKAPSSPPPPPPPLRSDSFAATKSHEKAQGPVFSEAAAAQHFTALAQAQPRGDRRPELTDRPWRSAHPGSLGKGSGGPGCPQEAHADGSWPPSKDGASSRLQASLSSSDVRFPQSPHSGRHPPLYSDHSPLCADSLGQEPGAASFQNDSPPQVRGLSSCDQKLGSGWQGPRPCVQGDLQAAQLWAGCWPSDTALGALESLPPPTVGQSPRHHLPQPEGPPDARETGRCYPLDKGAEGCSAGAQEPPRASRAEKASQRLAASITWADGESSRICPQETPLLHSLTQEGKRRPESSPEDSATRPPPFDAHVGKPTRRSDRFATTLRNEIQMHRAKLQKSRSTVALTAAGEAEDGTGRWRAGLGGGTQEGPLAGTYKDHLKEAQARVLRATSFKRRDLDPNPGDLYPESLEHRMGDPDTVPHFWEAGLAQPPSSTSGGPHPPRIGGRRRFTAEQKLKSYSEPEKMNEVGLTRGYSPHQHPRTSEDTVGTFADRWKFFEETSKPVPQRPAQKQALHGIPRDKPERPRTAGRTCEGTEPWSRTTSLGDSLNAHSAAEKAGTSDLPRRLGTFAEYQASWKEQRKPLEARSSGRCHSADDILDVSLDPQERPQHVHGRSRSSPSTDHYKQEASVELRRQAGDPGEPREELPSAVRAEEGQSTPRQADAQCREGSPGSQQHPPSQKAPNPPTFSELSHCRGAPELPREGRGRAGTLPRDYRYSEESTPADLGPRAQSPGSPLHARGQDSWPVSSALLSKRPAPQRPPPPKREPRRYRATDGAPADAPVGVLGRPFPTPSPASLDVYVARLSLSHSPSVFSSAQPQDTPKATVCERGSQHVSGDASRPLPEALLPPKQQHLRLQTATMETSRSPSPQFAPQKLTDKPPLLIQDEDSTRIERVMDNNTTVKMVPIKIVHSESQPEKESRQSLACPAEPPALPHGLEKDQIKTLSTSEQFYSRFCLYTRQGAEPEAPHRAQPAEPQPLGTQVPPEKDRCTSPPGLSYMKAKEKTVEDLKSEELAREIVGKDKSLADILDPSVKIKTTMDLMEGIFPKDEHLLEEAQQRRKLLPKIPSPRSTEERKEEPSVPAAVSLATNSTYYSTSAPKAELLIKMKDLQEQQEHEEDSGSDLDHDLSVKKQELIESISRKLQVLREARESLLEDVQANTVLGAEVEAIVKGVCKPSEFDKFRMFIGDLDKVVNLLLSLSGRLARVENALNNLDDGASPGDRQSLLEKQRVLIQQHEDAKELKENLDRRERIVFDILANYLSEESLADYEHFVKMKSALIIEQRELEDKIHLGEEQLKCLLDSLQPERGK
T2 sequence (Q14160 whole entry, the tested form may be a part): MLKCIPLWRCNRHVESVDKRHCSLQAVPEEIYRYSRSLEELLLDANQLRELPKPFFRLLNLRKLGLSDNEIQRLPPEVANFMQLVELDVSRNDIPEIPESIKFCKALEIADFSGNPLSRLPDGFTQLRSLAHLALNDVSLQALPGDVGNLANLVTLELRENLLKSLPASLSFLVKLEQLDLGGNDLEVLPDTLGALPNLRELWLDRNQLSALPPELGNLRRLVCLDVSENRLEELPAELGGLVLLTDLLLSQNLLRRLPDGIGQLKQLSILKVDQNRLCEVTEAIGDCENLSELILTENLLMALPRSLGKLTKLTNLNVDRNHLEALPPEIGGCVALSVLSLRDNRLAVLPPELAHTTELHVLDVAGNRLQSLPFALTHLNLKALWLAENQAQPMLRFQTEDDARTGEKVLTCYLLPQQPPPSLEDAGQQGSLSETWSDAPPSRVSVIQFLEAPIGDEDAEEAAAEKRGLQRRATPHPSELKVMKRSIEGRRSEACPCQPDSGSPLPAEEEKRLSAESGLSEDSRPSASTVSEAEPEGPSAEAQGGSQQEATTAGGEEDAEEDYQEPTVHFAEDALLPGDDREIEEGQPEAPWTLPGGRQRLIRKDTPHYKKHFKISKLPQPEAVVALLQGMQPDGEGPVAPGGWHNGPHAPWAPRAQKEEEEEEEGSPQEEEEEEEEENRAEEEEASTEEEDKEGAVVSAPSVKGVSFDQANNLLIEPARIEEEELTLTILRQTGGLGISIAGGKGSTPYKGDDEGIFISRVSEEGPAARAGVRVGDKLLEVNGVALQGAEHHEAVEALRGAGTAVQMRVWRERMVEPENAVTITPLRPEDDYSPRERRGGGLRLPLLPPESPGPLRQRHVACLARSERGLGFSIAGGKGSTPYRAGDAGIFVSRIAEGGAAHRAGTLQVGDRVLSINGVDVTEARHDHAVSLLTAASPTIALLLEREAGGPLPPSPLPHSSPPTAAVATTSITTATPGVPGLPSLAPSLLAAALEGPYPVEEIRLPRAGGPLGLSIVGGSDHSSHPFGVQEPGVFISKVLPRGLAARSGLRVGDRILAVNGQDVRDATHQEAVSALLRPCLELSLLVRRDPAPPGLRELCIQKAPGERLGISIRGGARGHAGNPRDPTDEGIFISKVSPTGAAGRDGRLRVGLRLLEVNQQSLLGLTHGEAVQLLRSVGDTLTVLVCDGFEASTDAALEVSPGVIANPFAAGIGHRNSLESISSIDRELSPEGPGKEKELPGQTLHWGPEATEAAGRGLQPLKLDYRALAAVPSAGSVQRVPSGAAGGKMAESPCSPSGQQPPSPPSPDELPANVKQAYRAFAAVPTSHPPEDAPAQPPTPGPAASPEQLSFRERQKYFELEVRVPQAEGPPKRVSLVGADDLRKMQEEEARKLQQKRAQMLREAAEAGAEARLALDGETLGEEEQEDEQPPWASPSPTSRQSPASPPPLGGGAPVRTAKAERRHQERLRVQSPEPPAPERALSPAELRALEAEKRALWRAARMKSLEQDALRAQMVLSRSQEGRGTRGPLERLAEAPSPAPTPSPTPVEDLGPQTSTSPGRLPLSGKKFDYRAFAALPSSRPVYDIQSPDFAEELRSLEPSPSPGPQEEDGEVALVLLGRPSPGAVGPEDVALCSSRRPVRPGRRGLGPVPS

For “PYSELNYETSHYPASPDSWV (Biotin-PYSELNYETSHYPASPDSWV) [catenin - delta 2]”, the Classification in experiment [1] (PDZ PSD95, PDZ Domain 1) was 1 (A450 nm 0-1); in experiment [1] (PDZ PSD95, PDZ Domain 1, 2, 3) it was 2 (A450 nm 1-2); in experiment [2] (PDZ KIAA0147, PDZ Domain 2), 3 (A450 nm 2-3); in experiment [2] (PDZ KIAA0147, PDZ Domain 4) it was 1 (A450 nm 0-1); in experiment [3] (PDZ Domain 3) it was 1 (A450 nm 0-1); in experiment [4] it was 2 (A450 nm 1-2).

On to “LNETTETQRTLLNGDLQTSI (Biotin-LNETTETQRTLLNGDLQTSI) [SSTR2 (somatostatin recepor 2)]”, for which, in experiment [4], the Classification is 1 (A450 nm 0-1).

Turning to `CC[C@H](C)[C@H](NC(=O)[C@H](CCC(N)=O)NC(=O)CCCC[C@@H]1SC[C@@H]2NC(=O)N[C@@H]21)C(=O)N[C@@H](CO)C(=O)N1CCC[C@H]1C(=O)NCC(=O)NCC(=O)N[C@@H](CC(C)C)C(=O)N[C@@H](CCC(=O)O)C(=O)N1CCC[C@H]1C(=O)N1CCC[C@H]1C(=O)N[C@@H](CO)C(=O)N[C@@H](CCC(=O)O)C(=O)N[C@@H](CCCCN)C(=O)N[C@@H](Cc1c[nH]cn1)C(=O)N[C@@H](Cc1ccccc1)C(=O)N[C@@H](CCCNC(=N)N)C(=O)N[C@@H](CCC(=O)O)C(=O)N[C@H](C(=O)N[C@@H](CCC(=O)O)C(=O)N[C@H](C(=O)O)C(C)C)[C@@H](C)O` [Tax], the Classification in experiment [1] (PDZ PSD95, PDZ Domain 1) is 5 (A450 nm of 4 more than 2× repeated); in experiment [1] (PDZ PSD95, PDZ Domain 2), 1 (A450 nm 0-1); in experiment [1] (PDZ PSD95, PDZ Domain 3), 1 (A450 nm 0-1); in experiment [2] (PDZ KIAA0147, PDZ Domain 1), 5 (A450 nm of 4 more than 2× repeated); in experiment [2] (PDZ KIAA0147, PDZ Domain 2) it was 5 (A450 nm of 4 more than 2× repeated); in experiment [2] (PDZ KIAA0147, PDZ Domain 3), 1 (A450 nm 0-1). The Classification in experiment [2] (PDZ KIAA0147, PDZ Domain 4) is recorded as 1 (A450 nm 0-1); in experiment [3] (PDZ Domain 2), 5 (A450 nm of 4 more than 2× repeated); in experiment [3] (PDZ Domain 3), 5 (A450 nm of 4 more than 2× repeated); in experiment [4] it was 3 (A450 nm 2-3).

As for `CC(C)C[C@H](NC(=O)[C@H](CC(=O)O)NC(=O)[C@H](CO)NC(=O)[C@H](CCC(=O)O)NC(=O)CNC(=O)[C@H](Cc1ccc(O)cc1)NC(=O)[C@H](CC(C)C)NC(=O)[C@H](C)NC(=O)[C@H](CO)NC(=O)[C@H](CO)NC(=O)[C@H](Cc1ccccc1)NC(=O)[C@H](C)NC(=O)[C@H](C)NC(=O)[C@H](Cc1ccc(O)cc1)NC(=O)[C@H](CC(=O)O)NC(=O)[C@H](CC(C)C)NC(=O)[C@H](C)NC(=O)CNC(=O)[C@@H]1CCCN1C(=O)[C@@H](NC(=O)CCCC[C@@H]1SC[C@@H]2NC(=O)N[C@@H]21)C(C)C)C(=O)O` [a-actinin 2] (Biotin-VPGALDYAAFSSALYGESDL-OH; C-terminus assumed), the Classification in experiment [5] was 5 (A450 nm of 4 more than 2× repeated); in experiment [2] (PDZ KIAA0147, PDZ Domain 1), 2 (A450 nm 1-2); in experiment [2] (PDZ KIAA0147, PDZ Domain 3), 3 (A450 nm 2-3); in experiment [4] it was 1 (A450 nm 0-1).

Turning to “A2AA_HUMAN (modified) (Biotin-HDFRRAFKKILARGDRKRIV; not fully specified)”, the Classification in experiment [5] is 1 (A450 nm 0-1); in experiment [4], 4 (A450 nm 3-4).

As for `CSCC[C@H](NC(=O)[C@H](C)NC(=O)[C@H](CCCNC(=N)N)NC(=O)CNC(=O)[C@@H](NC(=O)[C@H](Cc1c[nH]c2ccccc12)NC(=O)[C@H](CCCNC(=N)N)NC(=O)CNC(=O)CCCC[C@@H]1SC[C@@H]2NC(=O)N[C@@H]21)[C@@H](C)O)C(=O)N[C@@H](CO)C(=O)N[C@@H](C)C(=O)N[C@@H](Cc1c[nH]c2ccccc12)C(=O)N[C@@H](CCCCN)C(=O)N1CCC[C@H]1C(=O)N[C@H](C(=O)N[C@@H](CCCNC(=N)N)C(=O)N[C@@H](CCCNC(=N)N)C(=O)N[C@@H](CCC(=O)O)C(=O)N[C@H](C(=O)N[C@@H](CCC(=O)O)C(=O)N[C@H](C(=O)O)C(C)C)[C@@H](C)O)[C@@H](C)O` [HPV E6 #35 (modified)] (Biotin-GRWTGRAMSAWKPTRRETEV-OH; C-terminus assumed), the Classification is 5 (A450 nm of 4 more than 2× repeated) in experiment [1] (PDZ PSD95, PDZ Domain 1); 5 (A450 nm of 4 more than 2× repeated) in experiment [1] (PDZ PSD95, PDZ Domain 1, 2, 3); 5 (A450 nm of 4 more than 2× repeated) in experiment [1] (PDZ PSD95, PDZ Domain 3); 5 (A450 nm of 4 more than 2× repeated) in experiment [2] (PDZ KIAA0147, PDZ Domain 1); 5 (A450 nm of 4 more than 2× repeated) in experiment [2] (PDZ KIAA0147, PDZ Domain 2); 4 (A450 nm 3-4) in experiment [2] (PDZ KIAA0147, PDZ Domain 3). The Classification in experiment [2] (PDZ KIAA0147, PDZ Domain 4) was 1 (A450 nm 0-1); in experiment [3] (PDZ Domain 1) it was 5 (A450 nm of 4 more than 2× repeated); in experiment [3] (PDZ Domain 1, 2), 5 (A450 nm of 4 more than 2× repeated); in experiment [3] (PDZ Domain 2), 5 (A450 nm of 4 more than 2× repeated); in experiment [3] (PDZ Domain 3), 5 (A450 nm of 4 more than 2× repeated); in experiment [4] it was 3 (A450 nm 2-3).

As for “VHDAESSDEDGYDWGPATDL (Biotin-VHDAESSDEDGYDWGPATDL) [zona occludens 3 (ZO-3)]”, the Classification in experiment [5] was 2 (A450 nm 1-2); in experiment [4], 1 (A450 nm 0-1).

Regarding `CC(C)C[C@H](NC(=O)[C@H](CCCNC(=N)N)NC(=O)CNC(=O)CNC(=O)[C@H](CCCNC(=N)N)NC(=O)[C@H](C)NC(=O)[C@@H]1CCCN1C(=O)[C@H](CCCNC(=N)N)NC(=O)CNC(=O)CNC(=O)[C@@H](NC(=O)[C@H](C)NC(=O)CCCC[C@@H]1SC[C@@H]2NC(=O)N[C@@H]21)C(C)C)C(=O)N[C@@H](CCC(N)=O)C(=O)NCC(=O)N[C@@H](CCCNC(=N)N)C(=O)N[C@@H](CCCNC(=N)N)C(=O)N[C@@H](CCC(N)=O)C(=O)N[C@H](C(=O)N[C@@H](CCC(N)=O)C(=O)N[C@H](C(=O)O)C(C)C)[C@@H](C)O` [HPV E6 58 (modified)] (Biotin-AVGGRPARGGRLQGRRQTQV-OH; C-terminus assumed), the Classification in experiment [1] (PDZ PSD95, PDZ Domain 1) is 5 (A450 nm of 4 more than 2× repeated); in experiment [1] (PDZ PSD95, PDZ Domain 1, 2, 3), 5 (A450 nm of 4 more than 2× repeated); in experiment [1] (PDZ PSD95, PDZ Domain 3) it was 5 (A450 nm of 4 more than 2× repeated); in experiment [2] (PDZ KIAA0147, PDZ Domain 1) it was 2 (A450 nm 1-2); in experiment [3] (PDZ Domain 1), 1 (A450 nm 0-1); in experiment [3] (PDZ Domain 1, 2), 5 (A450 nm of 4 more than 2× repeated). In addition, the Classification in experiment [3] (PDZ Domain 2) is 5 (A450 nm of 4 more than 2× repeated); in experiment [3] (PDZ Domain 3), 2 (A450 nm 1-2); in experiment [4], 1 (A450 nm 0-1).

As to “PPATPSPRLALPAHHNATRL (Biotin-PPATPSPRLALPAHHNATRL) [Na+/Pi cotransporter 2]”, the Classification in experiment [5] and in experiment [4] was 1 (A450 nm 0-1) in each case.
